Consider three compounds from patent US20260344665A1, “FUNGICIDAL COMPOUND” (priority 2022, published 2026).

For data set [1], the system named is Puccinia recondita. The data set is described as follows: Mixture with malonomicin, leaf disc, Puccinia recondita preventive. It counts as in vivo. The source says: (§1) An additional ingredient having pesticidal activity, for instance fungicidal activity may result in an unexpected synergistic activity. […] The action to be expected E for a given active ingredient combination obeys the so-called COLBY formula and can be calculated as follows (COLBY, S. R. “Calculating synergistic and antagonistic responses of herbicide combination”. Weeds, Vol. 15, pages 20-22; 1967): • ppm=milligrams of active ingredient (=a.i.) per liter of spray mixture • X=% action by active ingredient A) using p ppm of active ingredient • Y=% action by active ingredient B) using q ppm of active ingredient.
(§2) According to COLBY, the expected (additive) action of active ingredients A)+B) using p+q ppm of active ingredient is:
(§3) In mathematical terms, synergism corresponds to a positive value for the difference of (O-E). In the case of purely complementary addition of activities (expected activity), said difference (O-E) is zero. A negative value of said difference (O-E) signals a loss of activity compared to the expected activity.
(§4) A stock solution for oligosaccharide compound according to the present invention was produced in water plus 0.025% Tween®20. Malonomicin was produced according to Law et al, 2018 (Nature Catalys is | VOL 1 | DECEMBER 2018 | 977-984). A stock solution of malonomicin was produced in water plus 0.025% Tween®20.
(§5) Assays to test efficacy of mixtures of the compound of Formula (I) in combination with malonomicin on the control of fungal pathogens in a leaf disc assay were designed for two 24 well plates.
(§6) Table 8 and 9: Outline of 24 well testplate (1) and testplate (2) including concentration of compounds sprayed per well. The upper number in the cell indicates the oligosaccharide compound of the present invention concentration (ppm), the lower number malonomicin concentration (ppm). Column (1) holds a dilution series of compound of Formula (I), row (2-D) hold a dilution series of malonomicin. Well 2-D-(1) represents an untreated check. This design was applied for tests including Puccinia recondita (EPPO code: PUCCRE) with preventive and curative spray timing.
A first set of master plates with 1× concentrated spray solution of the compound of Formula (I) stock diluted in water with concentrations according to Table 8, Table 9, Table 11 and Table 12, respectively, was prepared. Each well contained 0.025% Tween®20. Accordingly, a second set of master plates with 1× concentrated malonomicin stock diluted in water was prepared. Each well of the second set contained 0.025% Tween®20. Leaf segments placed on agar in 24 well plates are sprayed with 8 ul of solution from the master plate containing compound of Formula (I) and the leaf segments were let to dry, followed 2 hours later by 8 ul of solution from the master plate containing malonomicin. After second sprays have dried, leaf segments are infected with fungal spores to obtain a preventive application timing. Alternatively, leaf segments infected one day before spray of the compounds are used, resulting in a curative spray timing. […] For each leaf segment percent leaf coverage of disease symptoms was assessed. Percent leaf coverage reduction relative to the untreated check was calculated. […]
Wheat (cultivar Kanzler) leaf segments are placed on agar in multiwell plates (24-well format) and sprayed with test solutions (8 ul per well). […] After appropriate incubation the activity of a compound is assessed 8 dpi (days after inoculation) as preventive fungicidal activity.

Data set [2] concerns Puccinia recondita. The data set is described as follows: Mixture with malonomicin, leaf disc, Puccinia recondita curative. It counts as in vivo. The note with it: foliar, 192 h, read-out: control of fungal growth.
From the text: as §1, §2, §3, §4, §5, §6
(§7) A first set of master plates with 1× concentrated spray solution of the compound of Formula (I) stock diluted in water with concentrations according to Table 8, Table 9, Table 11 and Table 12, respectively, was prepared. Each well contained 0.025% Tween®20. Accordingly, a second set of master plates with 1× concentrated malonomicin stock diluted in water was prepared. Each well of the second set contained 0.025% Tween®20. Leaf segments placed on agar in 24 well plates are sprayed with 8 ul of solution from the master plate containing compound of Formula (I) and the leaf segments were let to dry, followed 2 hours later by 8 ul of solution from the master plate containing malonomicin. After second sprays have dried, leaf segments are infected with fungal spores to obtain a preventive application timing. Alternatively, leaf segments infected one day before spray of the compounds are used, resulting in a curative spray timing. In addition, several plates were produced where leaf segments were sprayed 2× in absence of test compound (with only Tween®20), representing the untreated check samples. For each leaf segment percent leaf coverage of disease symptoms was assessed. Percent leaf coverage reduction relative to the untreated check was calculated. Efficacy of the mixtures was tested in duplicate and on different fungal species. Reported efficacy values are the average of two replicate results.
Puccinia recondita (EPPO Code: PUCCRE) with Curative Spray Timing.
Wheat (cultivar Kanzler) leaf segments are placed on agar in multiwell plates (24-well format). The leaf disks are then inoculated with a spore suspension of the fungus. One day after inoculation the test solution is sprayed (8 ul per well). After appropriate incubation the activity of a compound is assessed 8 dpi (days after inoculation) as curative fungicidal activity

The test system of data set [3] is Blumeria graminis f.sp. tritici. Put plainly: Mixture with malonomicin, leaf disc, Blumeria graminis f.sp. tritici preventive. It counts as in vivo. The note with it: foliar, 168 h, read-out: control of fungal growth.
From the text: as §4, §5
(§8) Table 11 and Table 12: Outline of 24 well testplate (3) and testplate (4) including concentration of compounds per well. The upper number in the cell indicates the oligosaccharide compound of the present invention concentration (ppm), the lower number malonomicin concentration (ppm). Column (1) holds a dilution series of compound of Formula (I), row (4-D) hold a dilution series of malonomicin. Well 4-D-(1) represents an untreated check. This design was applied for tests including Blumeria graminis f.sp. tritici (EPPO code: ERYSGT) with preventive spray timing and Parastagonospora nodorum (EPPO code: LEPTNO) with preventive spray timing.
as §7
Blumeria graminis f.sp. tritici (EPPO Code: ERYSGT) with Preventive Spray Timing
Wheat (cultivar Kanzler) leaf segments are placed on agar in multiwell plates (24-well format) and sprayed with test solutions (8 ul per well). After drying, the leaf disks are inoculated with spores of the fungus. After appropriate incubation the activity of a compound is assessed 7 dpi (days post inoculation) as preventive fungicidal activity.

The test system of the next data set is Parastagonospora nodorum. The data set is described as follows: Mixture with malonomicin, leaf disc, Parastagonospora nodorum preventive. It counts as in vivo.
From the text: as §4, §5, §8, §7
Parastagonospora nodorum (EPPO Code: LEPTNO)
Wheat (cultivar Kanzler) leaf segments are placed on agar in multiwell plates (24-well format) and sprayed with test solutions (8 ul per well). After drying, the leaf disks are inoculated with a spore suspension of the fungus. After appropriate incubation the activity of a compound is assessed 4 dpi (days after inoculation) as preventive fungicidal activity.

Data set [4] relates to Puccinia recondita f. sp. tritici. Put plainly: Leaf painting assay in wheat seedling, Puccinia recondita preventive. It counts as in vivo. The settings on record: 188.00 ppm, preventive. Here is the method: (§9) Wheat seedlings of the variety Riband (for Zymoseptoria tritici trials) or variety Arina (for Puccinia recondite trials) were grown in the glasshouse until 14d after seeding. At this time, such seedlings usually have a first leaf fully emerged (designated L1), a second leaf fully emerged (L2) and a third leaf (L3) that is partially emerged and in the process of development. Using a permanent pen, two dots were applied on the second leaf such as to generate three segments of roughly equal size: Segment A (at the base), segment B (middle part) and segment C (tip of the leaf). A stock solution of the compound of Formula (I) was produced in water and of benzovindiflupyr in DMSO at a concentration of 10,000 ppm. […] The diluted compound was applied to the middle segment of L2 using a conventional cotton stick; the cotton stick was soaked in the diluted compound and rubbed several times on the adaxial leaf surface between the two marks. One day later, the complete plant was inoculated with a fungal spore suspension using a paint brush. The spore suspension was applied until before run-off.
For infection with Puccinia recondita (preventive): The test plants were inoculated by spraying them with a spore suspension one day after application (spore suspension at 80,000 spores per ml in water supplemented with Tween20 at 0.1%). After an incubation period of 1 day at 20 °C and 95% rh, the inoculated test plants were kept at 20 °C and 60% rh in a greenhouse.
(§10) The three segments of the leaf were evaluated individually.

The subject of a further data set is Zymoseptoria tritici. Put plainly: Leaf painting assay in wheat seedling, Zymoseptoria tritici preventive. It counts as in vivo. The note with it: Experiment 1; 188.00 ppm; tip segment; preventive. Here is the method:
as §9
For infection with Zymoseptoria tritici (preventive), the test plants were inoculated by spraying a spore suspension on them one day after application (1.5 Mio spores per ml in water supplemented with 0.01% Tween20). After an incubation period of 4 days at 22 °C/21 °C (day/night) and 95% rh, the inoculated test plants were kept at 22 °C/21 °C (day/night) and 70% rh in a greenhouse.
as §10

The test system of data set [5] is Blumeria graminis f.sp. tritici. Put plainly: Powdery mildew assay in wheat (haustoria formation). It counts as in vivo. The settings on record: Blumeria graminis, 48 h, read-out: haustoria formation (% relative to control).
Data set [6] deals with ROS production in wheat leaf discs. Put plainly: Reactive oxygen species (ROS) burst assay with wheat leaf discs. The note with it: INA 100 μM; treated vs. control, 40 minutes.

Regarding `NC[C@@H]1NC(=O)C(C(=O)CC(NC(=O)[C@@H](N)CO)(C(=O)O)C(=O)O)=C1O` [malonomicin, {[(2S)-2-amino-3-hydroxypropanoyl]amino} {2-[(5S)-5-(aminomethyl)-4-hydroxy-2-oxo-2,5-dihydro-1H-pyrrol-3-yl]-2-oxoethyl} malonic acid, reference compound], the “control of fungal growth” value was determined as 0% in the data set on Puccinia recondita [1] (malonomicin 0.74 ppm solo); 10% with Puccinia recondita [1] (malonomicin 2.22 ppm solo); 80% in the data set on Puccinia recondita [1] (malonomicin 6.67 ppm solo); 100% in the data set on Puccinia recondita [1] (malonomicin 20 ppm solo); 100% in the data set on Puccinia recondita [1] (malonomicin 200 ppm solo); 0% in the data set with Parastagonospora nodorum (malonomicin 7.4 ppm solo). For the same compound, the “control of fungal growth” value with Parastagonospora nodorum (malonomicin 22.2 ppm solo) was found to be 45%; in the data set with Parastagonospora nodorum (malonomicin 66.7 ppm solo), 50%; with Parastagonospora nodorum (malonomicin 200 ppm solo), 90%; with Parastagonospora nodorum (malonomicin 600 ppm solo) it was 95%. For the same compound, the inhibition of growth at 0.74 µg/mL in the data set with Puccinia recondita [2] (malonomicin 0.74 ppm solo) stood at 35%. Also, the inhibition of growth at 2.22 µg/mL in the data set on Puccinia recondita [2] (malonomicin 2.22 ppm solo) was 70%. Besides, the inhibition of growth at 6.67 µg/mL in the data set with Puccinia recondita [2] (malonomicin 6.67 ppm solo) was determined as 100%. The inhibition of growth at 20 µg/mL in the data set with Puccinia recondita [2] (malonomicin 20 ppm solo) was found to be 100%. Also, the inhibition of growth at 200 µg/mL (with Puccinia recondita [2] (malonomicin 200 ppm solo); in data set [3] (malonomicin 200 ppm solo)) was 100% each time. For the same compound, the inhibition of growth at 7.4 µg/mL in data set [3] (malonomicin 7.4 ppm solo) is 0%. In data set [3] (malonomicin 22.2 ppm solo), the inhibition of growth at 22.2 µg/mL was 0%. Moreover, in data set [3] (malonomicin 66.7 ppm solo), the inhibition of growth at 66.7 µg/mL was 70%. The inhibition of growth at 600 µg/mL in data set [3] (malonomicin 600 ppm solo) came to 75%.

In the case of `Cn1cc(C(=O)Nc2cccc3c2C2CCC3C2=C(Cl)Cl)c(C(F)F)n1` (centres unmarked) [benzovindiflupyr, reference compound], the “% reduction fungal growth” value in data set [4] (Experiment 2, base segment) was 7%; in data set [4] (Experiment 2, middle segment (treated)), 100%; in data set [4] (Experiment 2, tip segment) it was 100%; in data set [4] (Experiment 3, base segment), 21%; in data set [4] (Experiment 3, middle segment (treated)), 100%; in data set [4] (Experiment 3, tip segment) it was 100%. Also, the “% reduction fungal growth” value in data set [4] (Experiment 4, base segment) stood at 3%; in data set [4] (Experiment 4, middle segment (treated)), 100%; in data set [4] (Experiment 4, tip segment) it was 100%; with Zymoseptoria tritici, 99%.

For `O=C(O)c1cc(Cl)nc(Cl)c1` [INA, 2.6-dichloro-isonicotinic acid, reference compound], the activity at 100 µM in data set [5] amounted to 27.6%. Further, in data set [6], the “Fold change (peak ROS)” value is given as 1.8.
